How the values were obtained:
[1] = target: T1, transthyretin tetramer (Homo sapiens, UniProt P02766); details: two molecules of glabridin per tetramer; cited from earlier work
[2] = target: T1, transthyretin tetramer; assay: Stabilization of transthyretin tetramer in serum ex vivo (Test Example 1; urea denaturation, electrophoresis and Western blotting); type: biochemical; parameters: from tissue; host or cells: human serum (blood of three middle-aged or older persons)
Experimental: The white circles represent the ratios in the serums added with the glabridin. The black circles represent the ratios in the serums added with the medium-chain fatty acid triglyceride solution containing a hydrophobic licorice extract.
Serums were obtained from blood taken from three middle-aged or older persons. The medium-chain fatty acid triglyceride solution containing a hydrophobic licorice extract and the glabridin that were obtained in Example 2 were added to each serum (added in such a manner that the amount of the glabridin was 0, 10, and 50 μM respectively). The resulting mixtures were incubated at 25° C. for 30 minutes, and then denatured with urea. Using these samples, the transthyretins (the tetramers and the monomers) in the blood were quantitated by electrophoresis and Western blotting. The stabilization effect was investigated using the ratio of the monomers to the tetramers (monomer/tetramer).

ratio of the monomers to the tetramers (monomer/tetramer) ([2]; serum from three middle-aged or older persons, glabridin added at concentrations up to 50 μM, 25° C. 30 minutes, then denatured with urea): did not change
stabilization effect of the transthyretin (decreasing the ratio of the monomers and increasing the tetramers) ([2]; serum, added so that the amount of glabridin was 0, 10, 50 μM): not observed
Structure (SMILES): CC1(C)C=Cc2c(ccc3c2OC[C@@H](c2ccc(O)cc2O)C3)O1 [glabridin]
effect on transthyretin tetramer and formation of amyloid fibrils [1]: binding to and stabilizing a transthyretin tetramer

— patent publication US20230241149A1, “TRANSTHYRETIN TETRAMER STABILIZING AGENT, AND PREVENTING AGENT OR PROGRESSION SUPPRESSING AGENT FOR TRANSTHYRETIN AMYLOIDOSIS” (KANEKA CORPORATION, priority 2020, published 2023)
